These results are taken from ChEMBL document CHEMBL3785084, “Rational modification of the lead molecule: Enhancement in the anticancer and dihydrofolate reductase inhibitory activity” (Bioorg Med Chem Lett, 2016).

Active and inactive are the calls of the source. No cut-off for these calls is given here.

The test system of one assay is SK-MEL-2. As to the kind of experiment: Cytotoxicity against human SK-MEL-2 cells after 48 hrs by sulforhodamine B assay. The class given is functional. The note with it: SK-MEL-2, 48 h. Background: Sulforhodamine B stains cellular protein and so reports cell mass.
Assay [1] in a line: cells. As to conditions: Homo sapiens, SF-539, 48 h; for CC50: read-out: LC50.
The next assay relates to NCI-H226. As to the kind of experiment: cells. As to conditions: Homo sapiens, NCI-H226, 48 h; for CC50: read-out: LC50.
The subject of another assay is A498. As to the kind of experiment: cells. The note with it: Homo sapiens, A498, 48 h; for CC50: read-out: LC50.
The nature of assay [2]: cells. As to conditions: Homo sapiens, SF-268, 48 h; for CC50: read-out: LC50.
Assay [3] deals with Dihydrofolate reductase (Homo sapiens) (UniProt P00374).
A further assay relates to ACHN. Description: cells. The note with it: Homo sapiens, 48 h; for CC50: read-out: LC50.
The target in assay [4] is Dihydrofolate reductase (Homo sapiens) (UniProt P00374). The note with it: 20 to 30 uM.
Assay [5] can be described thus: Cytotoxicity against human BT549 cells after 48 hrs by sulforhodamine B assay. The class given is functional. The note with it: BT-549, 48 h.
Assay [6] is described as follows: Cytotoxicity against human COLO205 cells assessed as cell growth at 10^-5 M after 48 hrs by sulforhodamine B assay. It is filed as functional. As to conditions: COLO 205, 48 h, read-out: Activity.
The nature of assay [7]: Cytotoxicity against human HOP62 cells assessed as cell growth at 10^-5 M after 48 hrs by sulforhodamine B assay. The class given is functional. The note with it: HOP-62, 48 h, read-out: Activity.
The subject of the next assay is U-251. Description: Cytotoxicity against human U251 cells assessed as cell growth at 10^-5 M after 48 hrs by sulforhodamine B assay. It is filed as functional. As to conditions: U-251, 48 h, read-out: Activity.

In the case of `O=C1Nc2ccccc2/C1=C/c1cn(CC(O)Cn2cc(/C=C3\C(=O)Nc4ccccc43)c3ccccc32)c2ccccc12` (stereo not given), the GI50 with SK-MEL-2 is 1.7 µM; in “cells [1]” it was 1.5 µM; in the assay on NCI-H226, 1.6 µM; with A498 it was 2.2 µM; in “cells [2]”, 1.7 µM; with ACHN, 1.6 µM. Also, the GI50 in [5] was 1.7 µM. Besides, the TGI in the assay with SK-MEL-2 was 3.4 µM; in “cells [1]” it was 3.1 µM; with NCI-H226, 3.5 µM; in the assay with A498 it was 4.1 µM; in “cells [2]” it was 3.9 µM; in the assay on ACHN, 3.9 µM. In assay [5], this molecule registered a TGI of 3.6 µM. Besides, the CC50 amounted to 6.9 µM in the assay on SK-MEL-2 (read-out: LC50 (the source's name)); 6.1 µM in the assay “cells [1]”; 7.5 µM in the assay on NCI-H226; 7.6 µM in the assay on A498; 8.7 µM in the assay “cells [2]”; 9.3 µM in the assay with ACHN. The Ka in assay [3] was found to be 1.38 ×10⁵ /M. The inhibition result in assay [4] is “Active”.
Turning to `COc1cc(/C=C2\C(=O)Nc3ccccc32)cc(OC)c1O`, the GI50 was 2.5 µM in “cells [1]”; 17.7 µM with NCI-H226; 2.1 µM in the assay on A498; 4.3 µM in the assay “cells [2]”; 4.7 µM in the assay with ACHN. In addition, the TGI in “cells [1]” is 13.2 µM; in the assay with NCI-H226, above 100 µM; with A498, 15.8 µM; in “cells [2]” it was 28.8 µM; in the assay with ACHN, 22.3 µM. The CC50 is 53.7 µM in the assay “cells [1]”; above 100 µM in the assay with NCI-H226; above 100 µM in the assay on A498; above 100 µM in “cells [2]”; 83.2 µM in the assay with ACHN. Besides, the growth at 10 µM in assay [6] came out at 112%; in [7], 64.3%; in the assay with U-251, 47%.

By GI50 is commonly meant the concentration that inhibits growth by half. Read a high GI50 as lower sensitivity of the cells. What is called TGI is the concentration at which net growth stops. A high value points to less potent growth arrest.
